Tests used:
GPR174 [1] = biological target: T1, GPR174 (Homo sapiens, UniProt Q9BXC1); test: CRA (EC50) of GPR174 inhibitor compounds, tested as described in US 20200276190; format: cell-based; conditions: multiple values = separate experiments
Experimental: (§1) Where present, multiple EC50 values correspond to values obtained in separate experiments. […] The activity of the compounds was tested as described in US 20200276190, the disclosure of which is incorporated herein by reference.

human CD8 T cells [2] = test: Example 3: human CD8 T cell 10-day expansion with IL-7+IL-15 and inhibitors, IL-2 after restimulation; format: cell-based; conditions: 300 nM Compound #10, 500 nM Compound #49, 100 nM ZM-241385, 18 hours restimulation
Experimental: (§2) Purified human CD8 T cells were cultured in 24-well plates with the following conditions per well: • 2 mL X-VIVO™ 15 media (Lonza) • 1 million human CD8 T cells • 2 million Human T-Activator CD3/CD28 Dynabeads® (ThermoFisher) • 10 ng/mL human IL-7 (R&D Systems) • 10 ng/mL human IL-15 (R&D Systems)
and the following individual conditions for FIG. 4: • 1. DMSO vehicle control • 2. […] 300 nM GPR174 inhibitor Compound #10 • 4.
On days 4 and 7 (FIG. 4) or days 3, 5, and 7 (FIG. 5), cultures were washed and seeded at 0.5 cells million per well with the same GPR174 and A2A inhibitor conditions, and with 10 ng/mL IL-7 and 10 ng/mL IL-15.
After 18 hours of culture, supernatants were harvested and analyzed for IL-2 (MesoScale Discovery).

GPR174 [3] = biological target: T1, GPR174; test: Human GPR174 CRE activity / Gs signaling; format: cell-based
Experimental: as §1

human CD8 T cells [4] = test: Example 4: human CD8 T cell expansion with GPR174, A2A, PKA or EPAC inhibitors, IL-2 after restimulation; format: cell-based; conditions: 300 nM Compound #10, 100 nM ZM-241385, 500 μM Rp-8-Br-cAMPS, 5 μM ESI-09; 5.5 hours restimulation
Experimental: as §2, with “(Lonza) • 0.4 million human” for “(Lonza) • 1 million human”, “T cells (Donor A) • 2” for “T cells • 2”
and the following individual conditions, ±300 nM Compound #10: • 1. DMSO vehicle control • 2. […] 500 μM Rp-8-Br-cAMPS • 4. 5 μM ESI-09
On days 3, 5, and 7, cultures were washed and seeded at 0.5 cells million per well with the same small molecule inhibitor conditions, and with IL-7 and IL-15.
After 5.5 hours of culture, supernatants were harvested and analyzed for IL-2 content (MesoScale Discovery).

human CD8 T cells [5] = test: Example 5: human CD8 T cell expansion with cAMP pathway and p38 inhibitors, IL-2 after restimulation; format: cell-based; conditions: 500 μM Rp-8-Br-cAMPS, 0.5 μM doramapimod; for IL-2 production following restimulation, fold above vehicle control (FIG. 8): 10 μM HJC-0197, 5 μM ESI-09
Experimental: (§3) DMSO vehicle control • 2. […] 500 μM Rp-8-Br-cAMPS • 4. […] 0.5 μM doramapimod • 6. Media control
(§4) or the following individual conditions for the experiment shown in FIG. 8, each ±0.5 μM doramapimod: • 1. DMSO vehicle control • 2. 500 μM Rp-8-Br-cAMPS • 3. […] 5 μM ESI-09
(§5) On days 3, 5, and 7, cultures were washed and seeded at 0.5 cells million per well with the same small molecule inhibitor conditions, and with IL-7 and IL-15. On day 10, cells were washed twice (12 mL media each), and restimulated in quadruplicate in 96-well round-bottom plates with the following conditions: • 0.1 mL X-VIVO™ 15 media (Lonza) • 0.05 million cells from each condition • 0.1 million Human T-Activator CD3/CD28 Dynabeads® (ThermoFisher)
(§6) After overnight culture, supernatants were harvested and analyzed for IL-2 content (MesoScale Discovery).

human CD8 T cells [6] = test: Example 5: T cell number increase during 10-day expansion; format: cell-based
Experimental: as §3, §4, §5

[7] = tested on: OT-I TCR transgenic CD8 T cells; test: Example 6: OT-I CD8 T cell expansion with PKA and p38 inhibitors, IL-2 after restimulation with EG7 cells; format: cell-based, mouse; conditions: 0.2 μM doramapimod, 500 μM Rp-8-Br-cAMPS
Experimental: (§7) and the following individual conditions: • 1. DMSO vehicle control • 2. 0.2 μM doramapimod • 3. 500 μM Rp-8-Br-cAMPS • 4. 0.2 μM doramapimod+500 μM Rp-8-Br-cAMPS
On day 8, cells were immunophenotyped with the following antibodies: anti-CD8 BV570, anti-CD62L eFluor450, anti-TCF1/TCF7 PE, anti-CD39 PerCP-eFluor710, anti-CD69 BV605, anti-PD-1 BV711, anti-CTLA-4 APC, and LIVE/DEAD™ Fixable Green Dead Cell Stain.
as §6

[8] = tested on: OT-I TCR transgenic CD8 T cells; test: Example 6: immunophenotyping of OT-I T cells on day 8; format: cell-based, mouse; conditions: 8 days of culture
Experimental: as §7
On days 2, 4, 6, and 8, cells were counted, washed, and reseeded at 0.5 million per well in 2 mL media with the same 4 doramapimod/Rp-8-Br-cAMPS conditions and with recombinant mouse IL-2 and IL-7 (5 ng/mL each). On day 8, cells were immunophenotyped with the following antibodies: anti-CD8 BV570, anti-CD62L eFluor450, anti-TCF1/TCF7 PE, anti-CD39 PerCP-eFluor710, anti-CD69 BV605, anti-PD-1 BV711, anti-CTLA-4 APC, and LIVE/DEAD™ Fixable Green Dead Cell Stain.

[9] = tested on: OT-I TCR transgenic CD8 T cells; test: Example 8: OT-I CD8 T cell 9-day expansion with PKA, p38, PI3Kδ inhibitors, IL-2 after restimulation with EG7 cells; format: cell-based, mouse
Experimental: DMSO vehicle control • 2. 0.5 μM doramapimod • 3. 500 μM Rp-8-Br-cAMPS • 4. 0.5 μM doramapimod+500 μM Rp-8-Br-cAMPS • 5. 1 μM idelalisib • 6. 1 μM idelalisib+0.5 μM doramapimod • 7. 1 μM idelalisib+500 μM Rp-8-Br-cAMPS • 8. 1 μM idelalisib+0.5 μM doramapimod+500 μM Rp-8-Br-cAMPS
On days 2, 4, 6, and 8, cells were counted, washed and reseeded at 0.5 million per well in 2 mL media with the same 8 conditions and with recombinant mouse IL-2 and IL-7 (5 ng/mL each). […] Cells were also washed three times (12 mL media each), and restimulated in quintuplicate in 96-well round-bottom plates with the following conditions: • 0.1 mL RP10 media • 0.05 million OT-I T cells from each condition • 0.05 million EG7 cells
as §6

EG7 tumors = test: Example 7: adoptive transfer of inhibitor-precultured OT-1 T cells into EG7 tumor-bearing mice; format: in vivo, mouse
Experimental: as §7
On day 6 cells were seeded in 6-well plates with […] per well, and on day 8 cells were seeded in T75 flasks in 30 mL media to obtain enough cells to transfer into EG7 tumor-bearing mice.
C57BL/6 female mice were implanted with 6 million EG7 tumor cells subcutaneously on day 4 of the OT-1 T cell expansion. On day 6 of tumor growth (day 10 of OT-1 T cell expansion) OT-1 T cells were washed and injected retro-orbitally into tumor bearing mice that had been sorted into 4 groups with equal tumor volume distributions (n=8). Via retroorbital injection, mice received 2 million OT1 T cells of each of the 4 culture conditions. Tumor volume (mm^3) was calculated as 0.5×(length×width^2), where length represents the largest tumor diameter and width represents the perpendicular tumor diameter. Mice were euthanized when the sum of the two measurements exceeded 30 mm.

[10] = tested on: OT-I TCR transgenic CD8 T cells; test: Example 9: OT-I CD8 T cell 10-day expansion, immunophenotyping and IL-2 capacity; format: cell-based, mouse
[11] = Idelalisib (agent together with 1 μM idelalisib)

T1 sequence (Q9BXC1 whole entry): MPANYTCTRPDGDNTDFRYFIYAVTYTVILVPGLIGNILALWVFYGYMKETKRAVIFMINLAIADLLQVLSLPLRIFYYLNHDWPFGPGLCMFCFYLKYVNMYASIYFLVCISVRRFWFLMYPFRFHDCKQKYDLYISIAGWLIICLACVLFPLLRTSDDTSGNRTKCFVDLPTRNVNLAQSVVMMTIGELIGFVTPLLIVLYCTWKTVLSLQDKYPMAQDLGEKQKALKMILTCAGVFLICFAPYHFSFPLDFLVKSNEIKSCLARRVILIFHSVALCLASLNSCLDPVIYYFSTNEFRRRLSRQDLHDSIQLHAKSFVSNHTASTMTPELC

For `CCOc1ccc(C2C3=C(CCCC3=O)NC3=C2C(=O)c2ccccc23)cc1` (stereo not shown) [Compound 23], the EC50 (GPR174 [1]) was 2.9 µM.

For `CC(C)Oc1ccc(C2C3=C(CCCC3=O)NC3=C2C(=O)c2ccccc23)cc1` (stereo not shown) [Compound 49], the “IL-2 production following restimulation, fold vs vehicle (FIG. 5)” value (human CD8 T cells [2]) was 1.9 fold.

For `O=C(N/N=C/c1cc(Cl)ccc1O)c1ccncc1` [Compound 57], the “Human GPR174 CRE Activity (type of modulation)” value (from here on “Human GPR174 CRE Activity”) (GPR174 [3]) was “Antagonist or allosteric modulator”.

In the case of `Cc1cc(C(=O)N/N=C/c2cc(Br)ccc2O)c(C)o1` [Compound 58], the “Human GPR174 CRE Activity” value (GPR174 [3]) is reported as “Antagonist or allosteric modulator”.

`S=C(NCc1ccco1)Nc1ccc(I)cc1` [Compound 59] was tested, and the “Human GPR174 CRE Activity” value (GPR174 [3]) was “NM (“NM” refers to “non-modulator.”)”.

In the case of `CC(C)(C)c1cc(C(=O)/C(C#N)=N/Nc2cccc(Cl)c2)no1` [ESI-09], the “IL-2 production following restimulation, fold increase vs vehicle (FIG. 6)” value (human CD8 T cells [4]) is reported as “no impact on IL-2 production”, the “IL-2 production following restimulation, fold above vehicle control (FIG. 8)” value (human CD8 T cells [5]) is reported as “absent or negligible” and the “T cell growth during the 10-day culture relative to vehicle-treated cells (FIG. 8)” value (human CD8 T cells [6]) is reported as “attenuated T cell expansion”.

In the case of `Cc1ccc(C)c(CSc2nc(C3CCCC3)c(C#N)c(=O)[nH]2)c1` [HJC-0197], the “IL-2 production following restimulation, fold above vehicle control (FIG. 8)” value (human CD8 T cells [5]) is reported as “absent or negligible”.

`Cc1ccc(-n2nc(C(C)(C)C)cc2NC(=O)Nc2ccc(OCCN3CCOCC3)c3ccccc23)cc1` [doramapimod] was tested, and the “IL-2 production from 8-day OT-I cultures, fold vs vehicle control” value ([7]; day 8 restimulation with EG7 cells) was 4.9 fold, the “IL-2 production from 10-day OT-I cultures, fold over vehicle control” value ([7]; day 10 restimulation with EG7 cells) was 6.8 fold and the “increase in cells expressing both CD62L and TCF1/TCF7 relative to vehicle control” value [8] was “smaller increases”. The “percentage of OT-I T cells expressing both CD39 and CD69” value ([8]; vehicle 22%) was “smaller reductions”, the “Fold-change in IL-2 production relative to Vehicle control” value [9, 11] was 65.0 and the “Fold-change in IL-2 production relative to Vehicle control” value ([9]; column Vehicle (without idelalisib), 0.5 μM doramapimod, 500 μM Rp-8-Br-cAMPS) was 2.2. The “tumor growth / tumor volume after transfer of precultured OT-1 T cells” value (EG7 tumors; 2 million OT-1 T cells expanded 10 days with 0.2 μM doramapimod and/or 500 μM Rp-8-Br-cAMPS, retro-orbital, relative to vehicle control cells) was “significantly halted and delayed tumor growth”, the “survival of tumor-bearing mice” value (EG7 tumors; OT-1 T cells precultured with inhibitor(s), relative to vehicle group) was “intermediate survival times” and the “IL-2 production following restimulation, fold above vehicle control (FIG. 8)” value (human CD8 T cells [5]) was 1.8 fold. For the same molecule, the “IL-2 production following restimulation, fold vs vehicle (FIG. 7)” value (human CD8 T cells [5]; GPR174+A2A inhibitors, overnight restimulation) was 3.2 fold, the “T cell growth during the 10-day culture relative to vehicle-treated cells (FIG. 8)” value (human CD8 T cells [6]) was “very little effect on cell growth” and the “fold-increase in T cell number during the 10-day expansion (FIG. 7)” value (human CD8 T cells [6]; vehicle and media controls approximately 50-fold) was “approximately 50 fold”.

With `CC[C@H](Nc1ncnc2[nH]cnc12)c1nc2cccc(F)c2c(=O)n1-c1ccccc1` [idelalisib] the “Fold-change in IL-2 production relative to Vehicle control” value [9, 11] was 24.0, the TCF-1 positive cells ([10]; Vehicle 10%) was 27% and the CTLA-4 positive cells ([10]; Vehicle 41%) was 28%. The PD-1 positive cells ([10]; Vehicle 75%) was 75%, the CD39 positive cells ([10]; Vehicle 87%) was 63% and the TIM-3 positive cells ([10]; Vehicle 88%) was 60%. The CD69 positive cells ([10]; Vehicle 95%) was 74%.
